According to paper PMC6284057, “Combined Antibacterial Effects of Goat Cathelicidins With Different Mechanisms of Action” (Frontiers in Microbiology, 2018):
Like-named read-outs stand apart in the source and are kept apart here. No end group written: not given here.

Columns and labels:
S. aureus 209P = assay type: cell-based, Staphylococcus aureus; settings: 24 h
Experimental: (§1) Antimicrobial assay was performed as described previously ([Panteleev et al., 2017b]). Briefly, mid-log phase bacterial test cultures were diluted with the 2× Mueller-Hinton broth (MH, Sigma) supplemented with 1.8% NaCl or without it so that to reach a final cell concentration of 10^6 CFU/ml. 50 μl aliquots of the obtained bacterial suspension were added to 50 μl of the peptide solutions serially diluted with 0.1% water solution of bovine serum albumin (BSA) in 96-well flat-bottom polystyrene microplates (Eppendorf #0030730011). After incubation at 37°C and 900 rpm for 24 h the minimum inhibitory concentrations (MIC) were determined as the lowest peptide concentrations that prevented growth of a test microorganism observed as visible turbidity. The results were expressed as the median values determined on the basis of at least three independent experiments performed in triplicate.
(§2) The peptides were twofold serially diluted with 0.1% BSA in 96-well microplates (Eppendorf #0030730011). Then, the peptide solutions were mixed in the new test plate crosswise in such a way that the resulting checkerboard contained each combination of the cathelicidins in eight doubly increasing concentrations, with wells containing the highest concentration of each peptide at opposite corners ([Berditsch et al., 2015]). Then, the antimicrobial assay was performed as described in the previous section. […] The results were expressed as the median values determined on the basis of three independent experiments performed in duplicate. Estimation of synergistic effects of different cathelicidins was performed by calculating the fractional inhibitory concentration index (FICI) according to the equation: FICI = [À]/MICÀ + [B]/MICB, where MICÀ and MICB are the MICs of the individual substances, while [A] and [B] are the MICs of A and B when used together. A synergistic effect was defined at a FICI ≤ 0.5.

[1] = tested on: A. baumannii (XDR CI 2675); assay type: cell-based, Acinetobacter baumannii; settings: for Fractional inhibitory concentration (FICA, FICB): [X]/MICX; for Fractional inhibitory concentration (FICA, FICB) / MIC of the peptide when used together ([A], [B]): 0.9% NaCl; for MIC of the peptide when used together ([A], [B]): in the mix ChMAP-28 + mini-ChBac7.5Nα, other peptide at sub-inhibitory concentration; for MIC of the individual peptide (MICA, MICB): peptide used individually, medium with physiological NaCl (0.9%), median of 3 experiments in duplicate
Experimental: as §1, §2

E. coli C600 = assay type: cell-based, Escherichia coli
Experimental: as §1, §2

E. coli (CI 214) = assay type: cell-based, Escherichia coli; settings: CI 214, 24 h
Experimental: as §1, §2

E. coli (XDR CI 1057) [2] = assay type: cell-based, Escherichia coli; settings: for Fractional inhibitory concentration (FICA, FICB): [X]/MICX; for Fractional inhibitory concentration (FICA, FICB) / MIC of the peptide when used together ([A], [B]): 0.9% NaCl; for MIC of the peptide when used together ([A], [B]): in the mix ChMAP-28 + mini-ChBac7.5Nα, other peptide at sub-inhibitory concentration; for MIC of the individual peptide (MICA, MICB): peptide used individually, medium with physiological NaCl (0.9%), median of 3 experiments in duplicate
Experimental: as §1, §2

E. coli BL21 (DE3) = assay type: cell-based, Escherichia coli; settings: BL21, 24 h
Experimental: as §1, §2

E. coli ML-35p = assay type: cell-based, Escherichia coli; settings: for Fractional inhibitory concentration (FICA, FICB): [X]/MICX; for Fractional inhibitory concentration (FICA, FICB) / MIC of the peptide when used together ([A], [B]): 0.9% NaCl; for MIC of the peptide when used together ([A], [B]): in the mix ChMAP-28 + mini-ChBac7.5Nα, other peptide at sub-inhibitory concentration; for MIC of the individual peptide (MICA, MICB): peptide used individually, medium with physiological NaCl (0.9%), median of 3 experiments in duplicate
Experimental: as §1, §2

E. cloacae (XDR CI 4172) = assay type: cell-based, Enterobacter cloacae; settings: for Fractional inhibitory concentration (FICA, FICB): [X]/MICX; for Fractional inhibitory concentration (FICA, FICB) / MIC of the peptide when used together ([A], [B]): 0.9% NaCl; for MIC of the peptide when used together ([A], [B]): in the mix ChMAP-28 + mini-ChBac7.5Nα, other peptide at sub-inhibitory concentration; for MIC of the individual peptide (MICA, MICB): peptide used individually, medium with physiological NaCl (0.9%), median of 3 experiments in duplicate
Experimental: as §1, §2

[3] = tested on: E. coli XDR CI 1057 (26 days without antimicrobial agent)
Experimental: as §1, with “After incubation at 37°C and 900 rpm for 24 h the minimum inhibitory concentrations (MIC) were determined as the lowest peptide concentrations that prevented growth of a test microorganism observed as visible turbidity.” left out
(§3) Resistance induction experiments were performed using the previously described method ([Chernysh et al., 2015]) with some modifications. Briefly, on day 1, the overnight culture of wild-type bacteria was diluted with the 2× MH broth containing 1.8% NaCl so that to reach a final cell concentration of 10^6 CFU/ml. 50 μl aliquots of the obtained bacterial suspension were added to 50 μl of the peptide solutions serially diluted with 0.1% water solution of BSA in 96-well microplates (Eppendorf #0030730011). After incubation at 37°C and 900 rpm for 22 ± 2 h, MICs were determined as described above. For each subsequent daily transfer, 5 μl of the inoculum taken from the first well with a sub-inhibitory drug concentration were diluted with 1 ml of the fresh 2× MH broth supplemented with 1.8% NaCl. […] 26 repeated passages in the presence of antimicrobial agents were made for each bacterial strain during the experiment. […] Control serial passages in the absence of the agent were also performed.

[4] = tested on: E. coli XDR CI 1057 (26 days with synergy combination); settings: Table 4, strain after 26 days with synergy combination (selection in MH broth with 0.9% NaCl)
Experimental: as §1, with “After incubation at 37°C and 900 rpm for 24 h the minimum inhibitory concentrations (MIC) were determined as the lowest peptide concentrations that prevented growth of a test microorganism observed as visible turbidity.” left out
as §3

[5] = tested on: E. coli XDR CI 1057 (26 days with mini-ChBac7.5Nα)
Experimental: as §1, with “After incubation at 37°C and 900 rpm for 24 h the minimum inhibitory concentrations (MIC) were determined as the lowest peptide concentrations that prevented growth of a test microorganism observed as visible turbidity.” left out
as §3

[6] = tested on: E. coli XDR CI 1057 (26 days with polymyxin B); settings: Table 4, strain after 26 days with polymyxin B (selection in MH broth with 0.9% NaCl)
Experimental: as §1, with “After incubation at 37°C and 900 rpm for 24 h the minimum inhibitory concentrations (MIC) were determined as the lowest peptide concentrations that prevented growth of a test microorganism observed as visible turbidity.” left out
as §3

P. aeruginosa PAO1 = assay type: cell-based, Pseudomonas aeruginosa; settings: PAO1, 24 h
Experimental: as §1
The peptides were twofold serially diluted with 0.1% BSA in 96-well microplates (Eppendorf #0030730011). […] The results were expressed as the median values determined on the basis of three independent experiments performed in duplicate. […]

E. coli (XDR CI 1057) [7] = test: microbe, parasite or virus in culture; assay type: cell-based, Escherichia coli
Experimental: as §1

[8] = Table 4, strain after 26 days without antimicrobial agent (selection in MH broth with 0.9% NaCl)
[9] = With 0.9% NaCl, control strain, 26 days without antimicrobial agent
[10] = Without salt, control strain, 26 days without antimicrobial agent
[11] = Table 4, strain after 26 days with mini-ChBac7.5Nα (selection in MH broth with 0.9% NaCl)
[12] = With 0.9% NaCl, resistant strain, 26 days with mini-ChBac7.5Nα
[13] = Without salt, resistant strain, 26 days with mini-ChBac7.5Nα
[14] = Table 4, strain at 0 days of selection experiment (selection in MH broth with 0.9% NaCl)

Sequence | Fractional inhibitory concentration (FICA, FICB) (S. aureus 209P) | MIC of the individual peptide (MICA, MICB) (S. aureus 209P) | Fractional inhibitory concentration (FICA, FICB) [1] | MIC of the peptide when used together ([A], [B]) [1] | MIC of the individual peptide (MICA, MICB) [1] | MIC of the individual peptide (MICA, MICB) (E. coli (CI 214)) | Fractional inhibitory concentration (FICA, FICB) (E. coli (XDR CI 1057) [2]) | MIC of the peptide when used together ([A], [B]) (E. coli (XDR CI 1057) [2]) | MIC of the individual peptide (MICA, MICB) (E. coli (XDR CI 1057) [2]) | Fractional inhibitory concentration (FICA, FICB) (E. coli BL21 (DE3)) | MIC of the individual peptide (MICA, MICB) (E. coli BL21 (DE3)) | Fractional inhibitory concentration (FICA, FICB) (E. coli ML-35p) | MIC of the peptide when used together ([A], [B]) (E. coli ML-35p) | MIC of the individual peptide (MICA, MICB) (E. coli ML-35p) | Fractional inhibitory concentration (FICA, FICB) (E. cloacae (XDR CI 4172)) | MIC of the peptide when used together ([A], [B]) (E. cloacae (XDR CI 4172)) | MIC of the individual peptide (MICA, MICB) (E. cloacae (XDR CI 4172)) | Minimum inhibitory concentration [3, 8] | Minimum inhibitory concentration [3, 9] | Minimum inhibitory concentration [3, 10] | other results
GRFKRFRKKLKRLWHKVGPFVGPILHY [ChMAP-28] | 0.063 | 0.5 µM | 0.125 | 0.03 µM | 0.25 µM | 0.06 µM | 0.063 | 0.008 µM | 0.125 µM | 0.25 | 0.06 µM | 0.125 | 0.008 µM | 0.06 µM | 0.125 | 0.03 µM | 0.25 µM | 0.125 µM | 0.125 µM | 0.125 µM | Fractional inhibitory concentration (FICA, FICB) (E. coli C600; [X]/MICX, 0.9% NaCl): 0.125-0.25; MIC of the individual peptide (MICA, MICB) (E. coli C600; peptide used individually, medium with physiological NaCl (0.9%), median of 3 experiments in duplicate): 0.125 µM; Fractional inhibitory concentration (FICA, FICB) (E. coli (CI 214)): 0.25; Minimum inhibitory concentration [4]: 0.125 µM; Minimum inhibitory concentration [5, 11]: 0.125 µM; Minimum inhibitory concentration [5, 12]: 0.125 µM; Minimum inhibitory concentration [5, 13]: 0.125 µM; Minimum inhibitory concentration [6]: 0.25 µM; Fractional inhibitory concentration (FICA, FICB) (P. aeruginosa PAO1): 0.5; Minimum inhibitory concentration (E. coli (XDR CI 1057) [7]; [14]): 0.125 µM; Minimum inhibitory concentration (E. coli (XDR CI 1057) [7]; Table S2, XDR clinical isolate, NaCl content of medium not stated): 0.125 µM
RRLRPRRPRLPRPRPRPRPRPR [mini-ChBac7.5Nα] | 0.125 | 16 µM | 0.008 | 0.5 µM | >32 µM | >64 µM | 0.25 | 2 µM | 8 µM | 0.125 | 8 µM | 0.25 | 1 µM | 4 µM | 0.125 | 0.5 µM | 4 µM | 8 µM | 8 µM | 1 µM | Fractional inhibitory concentration (FICA, FICB) (E. coli C600; C600, 24 h): 0.25; MIC of the individual peptide (MICA, MICB) (E. coli C600; C600, 24 h): 4 µM; Minimum inhibitory concentration [4]: 8 µM; Minimum inhibitory concentration [5, 11]: >128 µM; Minimum inhibitory concentration [5, 12]: >256 µM; Minimum inhibitory concentration [5, 13]: 1 µM; Minimum inhibitory concentration [6]: 64 µM; MIC of the individual peptide (MICA, MICB) (P. aeruginosa PAO1): >32 µM; Minimum inhibitory concentration (E. coli (XDR CI 1057) [7]; [14]): 8 µM
